Source: US20100144722A1, “NOVEL HETEROCYCLIC COMPOUNDS AS GATA MODULATORS” (Dr. Reddy's Laboratories Ltd., priority 2008, published 2010)

Tested on: GATA1
Experiment: GATA Assay (GATA luciferase reporter in transfected HepG2 cells)
Assay type: cell-based, Human
Conditions: HepG2 cells transfected with GATA Translucent Reporter Vector, luciferase normalized to total protein
Procedure: Human HepG2 (ATCC) cells were grown in Eagle's Minimum Essential Media (MEM) containing 10% heat inactivated Fetal Bovine Serum (FBS) (Invitrogen) and 5 mL Penicillin-Streptomycin (Invitrogen) in T75 flasks (Corning) in a 37° C./5% CO2 tissue culture incubator (Thermo Electron Corporation) prior to the study. 96-well plates (Corning) were seeded in MEM containing 10% FBS to yield ˜50% confluency. The following day, cells were transfected using FuGENE 6 transfection reagent (Roche) and […] GATA Translucent Reporter Vector (Panomics) according the manufacturer's (Roche) protocol and incubated for about 10-19 h. The next day, the cells were treated with equal volumes of vehicle, dimethyl sulfoxide (DMSO) (Hybri-Max Sterile Filtered Sigma Aldrich) or compounds of formula (I) (in DMSO) diluted in MEM containing 1% FBS. The treated cells were incubated about 8-19 h. The next day the treatment media was removed and the cells were lysed and assayed for luciferase activity using the luciferase assay system (Promega) and using the Envision plate reader (Perkin Elmer). The lysates were also used to measure total protein content with the MicroBCA protein assay kit (Pierce) using the Multiskan Ascent plate reader at 570 nm. Luciferase values were normalized to total protein and fold induction was calculated.
Compounds that show an increase of ≧40% in luciferase levels at ≦20 μm concentration were considered as GATA activators.

Structure (SMILES) | GATA1 Activation (Fold Change Vs Control) (5μ compound) [Fold] | GATA1 Activation (Fold Change Vs Control) (10μ compound) [Fold]
O=C(O)C1(c2ccc(Nc3nc(NC4CCCC4)cc(-c4ccccc4)n3)cc2)CCC1 [Example 16, 1-[4-(4-cyclopentylamino-6-phenyl-pyrimidin-2-ylamino)-phenyl]-cyclobutane-carboxylic acid] | 2.44 | 2.13
O=C(O)C1(c2ccc(Nc3nc(NC4CCCC4)cc(C4CCCC4)n3)cc2)CCC1 [Example 25, 1-[4-(4-cyclopentyl-6-cyclopentylamino-pyrimidin-2-ylamino)-phenyl]-cyclobutanecarboxylic acid] | 3.69 | 3.32
Cc1noc(C)c1-c1cc(N2CCOCC2)nc(Nc2ccc(C3(C(=O)O)CCC3)cc2)n1 [Example 30, 1-{4-[4-(3,5-dimethyl-isoxazol-4-yl)-6-morpholin-4-yl-pyrimidin-2-ylamino]-phenyl}-cyclobutanecarboxylic acid] | 1.64 | 1.74
CC(C)(C)Nc1nc(Nc2ccc(C3(C(=O)O)CCC3)cc2)cc(-c2ccccc2)n1 [Example 55, 1-[4-(2-tert-butylamino-6-phenyl-pyrimidin-4-ylamino)-phenyl]-cyclobutane-carboxylic acid] | 2.86 | 2.40
CC(C)Oc1cc(-c2ccccc2)nc(Nc2ccc(C3(C(=O)O)CCC3)cc2)n1 [Example 68, 1-[4-(4-isopropoxy-6-phenyl-pyrimidin-2-ylamino)-phenyl]-cyclobutane-carboxylic acid] | 2.57 | 2.44
